# “And” between values parts separate entries of the source, which are not always exact repeats. Equal entries are not always repeated. Where two headings read alike, the source gives them in different places.
# Columns and labels:
# P-gp [1] = target: T1, P-gp (Homo sapiens, UniProt P08183); assay: PDSP cell-based screen: accumulation of calcein-AM in Caco-2 cells; settings: analogs of the screened nucleoside library
# KB-V1 cells = settings: for change of LD50 / resistance in presence of 5-CHInd: 10 μM 5-CHInd over 72 hours, Figure 4A; for effect on MDR phenotype: cytotoxicity of paclitaxel and vinblastine, Supplemental Information 2
# P-gp [2] = target: T1, P-gp; assay: P-gp ATPase assay, hydrolysis of [γ-32P]-ATP by P-gp membranes; format: biochemical
# [3] = target: P-gp (MDCK-MDR1 monolayers) (Homo sapiens, UniProt P08183); assay: Monolayer efflux experiment, MDCK-MDR1 monolayers
# MDCK monolayers = assay: Monolayer efflux experiment, MDCK monolayers; settings: substance alone (10 μM 5-CHInd, 3 μM rhodamine 123, 4 μM calcein-AM)
# P-gp (MDR1) = P-gp (MDR1) (Homo sapiens, UniProt P08183); assay: Monolayer efflux experiment, MDCK-MDR1 monolayers; settings: dog
# [4] = Monolayer efflux experiment, MDCK monolayers; settings: dog
# KB3-1 cells = assay: MTT cytotoxicity assay in KB3-1 cells; format: cell-based
# [5] = substance alone (10 μM 5-CHInd, 3 μM rhodamine 123, 4 μM calcein-AM), mean ± SEM
# Chain of P-gp (MDCK-MDR1 monolayers) (P08183 whole entry): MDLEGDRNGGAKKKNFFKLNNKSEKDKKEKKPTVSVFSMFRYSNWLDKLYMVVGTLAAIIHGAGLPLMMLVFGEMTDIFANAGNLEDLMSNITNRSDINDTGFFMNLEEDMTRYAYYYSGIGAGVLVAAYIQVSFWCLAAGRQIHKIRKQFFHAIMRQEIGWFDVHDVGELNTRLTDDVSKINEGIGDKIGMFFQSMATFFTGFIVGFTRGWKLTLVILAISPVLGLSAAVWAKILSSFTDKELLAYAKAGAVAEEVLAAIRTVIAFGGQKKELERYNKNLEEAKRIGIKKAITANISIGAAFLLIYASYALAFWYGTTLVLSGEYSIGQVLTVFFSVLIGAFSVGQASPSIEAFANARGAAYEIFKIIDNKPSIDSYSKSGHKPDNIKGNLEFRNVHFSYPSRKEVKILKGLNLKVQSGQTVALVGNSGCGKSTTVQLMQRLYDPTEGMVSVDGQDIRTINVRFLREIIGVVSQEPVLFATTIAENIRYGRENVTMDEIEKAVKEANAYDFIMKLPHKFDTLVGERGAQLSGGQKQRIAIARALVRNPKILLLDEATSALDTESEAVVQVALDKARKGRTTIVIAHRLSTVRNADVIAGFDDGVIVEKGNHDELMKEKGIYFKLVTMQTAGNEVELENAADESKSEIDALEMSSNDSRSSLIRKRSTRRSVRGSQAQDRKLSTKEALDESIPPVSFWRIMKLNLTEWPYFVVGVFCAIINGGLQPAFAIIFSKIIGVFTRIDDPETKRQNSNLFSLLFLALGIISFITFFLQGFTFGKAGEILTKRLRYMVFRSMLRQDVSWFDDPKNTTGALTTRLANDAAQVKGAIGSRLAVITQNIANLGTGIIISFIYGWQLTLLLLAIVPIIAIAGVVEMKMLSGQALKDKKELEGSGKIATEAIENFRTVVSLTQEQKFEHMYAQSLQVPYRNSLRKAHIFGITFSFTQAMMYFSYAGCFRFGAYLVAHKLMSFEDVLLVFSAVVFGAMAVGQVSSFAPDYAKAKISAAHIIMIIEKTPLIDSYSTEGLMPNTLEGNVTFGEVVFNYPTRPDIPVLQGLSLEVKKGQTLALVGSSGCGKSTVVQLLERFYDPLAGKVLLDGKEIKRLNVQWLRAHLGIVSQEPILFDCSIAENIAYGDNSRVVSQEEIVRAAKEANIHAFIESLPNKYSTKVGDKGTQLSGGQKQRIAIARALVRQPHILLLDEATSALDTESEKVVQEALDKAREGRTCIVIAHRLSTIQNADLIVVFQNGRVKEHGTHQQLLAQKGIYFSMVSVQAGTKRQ
# T1 sequence (P08183 whole entry): as above
# Chain of P-gp (MDR1) (P08183 whole entry): as above
compound,measurement,setting,value
O=[N+]([O-])c1ccc2c(ccn2C2CC(O)C(CO)O2)c1 (stereo not shown) [5-NInd],interaction with P-gp,P-gp [1],do not interact with P-gp
"CC[C@]1(O)C[C@@H]2CN(CCc3c([nH]c4ccccc34)[C@@](C(=O)OC)(c3cc4c(cc3OC)N(C)[C@H]3[C@@](O)(C(=O)OC)[C@H](OC(C)=O)[C@]5(CC)C=CCN6CC[C@]43[C@@H]65)C2)C1 [Vinblastine, reference compound]",change of LD50 / resistance in presence of 5-CHInd,KB-V1 cells; KB-V1,cells become more resistant
"OC[C@H]1O[C@@H](n2ccc3cc(-c4ccccc4)ccc32)C[C@@H]1O [5-PhInd, 5-phenyl indolyl 2′-deoxyribose]",effect on MDR phenotype,KB-V1 cells; KB-V1,no significant effects on MDR phenotype
"COc1cc2c(c(OC)c1OC)-c1ccc(OC)c(=O)cc1[C@@H](NC(C)=O)CC2 [Colchicine, reference compound]",change of LD50 / resistance in presence of 5-CHInd,KB-V1 cells; KB-V1,did not influence the LD50 values
same,Km,P-gp [2],37 ± 8 µM
Calcein-AM,BL→AP/AP→BL (Peff ratio),[3]; 4 μM calcein-AM + 10 μM 5-CHInd,~ 1
same,BL→AP/AP→BL (Peff ratio),[3]; [5],2940 ± 120
same,BL→AP/AP→BL (Peff ratio),MDCK monolayers,2.6 ± 0.3
"OC[C@H]1O[C@@H](n2ccc3cc(C4=CCCCC4)ccc32)C[C@@H]1O [5-CEInd, 5-cyclohexene indolyl 2′-deoxyribose]",effect on MDR phenotype,KB-V1 cells; KB-V1,no significant effects on MDR phenotype
"COc1cccc2c1C(=O)c1c(O)c3c(c(O)c1C2=O)C[C@@](O)(C(=O)CO)C[C@@H]3O[C@H]1C[C@H](N)[C@H](O)[C@H](C)O1 [Doxorubicin, reference compound]",change of LD50 / resistance in presence of 5-CHInd,KB-V1 cells; KB-V1,cells become more resistant
COC(=O)c1ccccc1-c1c2ccc(=N)cc-2oc2cc(N)ccc12 [Rhodamine 123],BL→AP/AP→BL (Peff ratio),[3]; [5],72.7
same,"efflux ratio at 60 min, 3 μM",P-gp (MDR1),72.7 ± 15.3
same,"efflux ratio at 60 min, 3 μM",[4],1.2 ± 0.2
"CC(=O)O[C@H]1C(=O)[C@@]2(C)[C@H]([C@H](OC(=O)c3ccccc3)[C@]3(O)C[C@H](OC(=O)[C@H](O)[C@@H](NC(=O)c4ccccc4)c4ccccc4)C(C)=C1C3(C)C)[C@]1(OC(C)=O)CO[C@@H]1C[C@@H]2O [Paclitaxel, reference compound]",potentiating effect of 5-CHInd,"KB3-1 cells; KB3-1, does not overexpress P-gp, Supplemental Information 1",not observed
same,change of LD50 / resistance in presence of 5-CHInd,KB-V1 cells; KB-V1,decreases
same,LD50,"KB-V1 cells; KB-V1, 48 hours, in presence of 50 μM 5-CHInd",0.49 ± 0.03 µM
same,LD50,"KB-V1 cells; KB-V1, 48 hours, no treatment with 5-CHInd",4.0 ± 0.24 µM
"OC[C@H]1O[C@@H](n2ccc3cc(C4CCCCC4)ccc32)C[C@@H]1O [5-CHInd, 5-cyclohexyl indolyl 2′-deoxyribose]",BL→AP/AP→BL (Peff ratio),[3]; [5],11.1 and 11.1 ± 2.5
same,LD50,"KB3-1 cells; KB3-1 MDR −/−, 72 hours post-treatment, MTT",45 ± 3 µM
same,BL→AP/AP→BL (Peff ratio),MDCK monolayers,8.7 ± 1.3
same,maximal non-toxic dose,KB-V1 cells; 48 hour period,50 µM
same,maximal non-toxic dose,KB-V1 cells; 72 hour period,10 µM
same,LD50,"KB-V1 cells; KB-V1 (MDR positive), 72 hours post-treatment, MTT",44 ± 5 µM
same,concentration at which cytotoxic,KB-V1 cells; MTT assay,greater than 50 μM
same,Ki,P-gp [2],6.5 nM
same,Km,P-gp [2],0.06 ± 0.01 µM
same,Vmax,P-gp [2],16 ± 0.2 nmol Pi/min/mg protein
same,fold by which Ki is lower than Km,P-gp [2]; Ki vs Km value of 60 nM,~ 9 fold

# — publication PMC3164776 (Biochemistry, 2010)
